In patent US8138206B2, “Piperidine derivative” (MSD. K.K., priority 2005, dated 2012):
Where a name gives a salt, the structure may show the parent alone. Read-outs that look alike come from different tables or passages of the source.

Experiments:
[1] = target: T1, human histamine-H3 receptor (Homo sapiens, UniProt Q9Y5N1); assay: Histamine analogue-binding inhibition test; conditions: 50% inhibitory concentration to specific [3H]N-α-methylhistamine binding; membrane specimen of cells expressing histamine-H3 receptor; 25° C., 2 hours
T1 construct: expressed in transfected cells; host or cells: HEK293 and CHO-K1 (membrane specimen)
Excerpt: A cDNA sequence coding for a human histamine-H3 receptor (see WO00/39164) was cloned with expression vectors pCR2.1, pEF1x (by Invitrogen) and pCI-neo (by Promega). The resulting expression vector was transfected into host cells, HEK293 and CHO-K1 (American Type Culture Collection), according to a cationic lipid process [see Proceedings of the National Academy of Sciences of the United States of America, Vol., 84, p. 7413 (1987)] to obtain histamine-H3 receptor expression cells.
A membrane specimen prepared from the cells having expressed a histamine-H3 receptor was incubated in an assay buffer (50 mM Tris buffer, pH 7.4) along with a test compound and 20,000 cpm [^3H]N-α-methylhistamine (by NEN) therein, at 25° C. for 2 hours, and then filtered through a glass filter GF/C. After washed with 50 mM Tris buffer (pH 7.4), the radioactivity on the glass filter was determined. The non-specific binding was determined in the presence of 10 μM thioperamide (by SIGAM), and the 50% inhibitory concentration (IC50) of the test compound to the specific N-alpha-methylhistamine binding was calculated [Molecular Pharmacology, Vol. 55, p. 1101 (1999)].

[2] = target: T2, histamine-H3 receptor (Rattus norvegicus, UniProt Q9QYN8); assay: Test for antagonistic effect to water-drinking action induced by histamine-H3 receptor selective agonist, R-α-methylhistamine; type: in vivo; conditions: male SD rat; 30 mg/kg orally 2 hours before R-α-methylhistamine; water drunk for 1 hour
T2 construct: from tissue; host or cells: living male SD rat (brain, third ventricle administration of the agonist)
Experimental: Under anesthesia with ketamine xylazine (74 and 11 mg/kg intraabdominal single administration), a brain stereotaxic device was set in the third ventricle of a male SD rat (7 to 10-week age, […]), and a chronic guide cannula (26 gauge, length 11 mm) was inserted into it and fixed with a dental resin. The position of the tip of the guide cannula is at 2.2 mm after the bregrna on the midline, and at a depth of 8 mm from the surface of the skull. After a restoration term of about 1 week, R-α-methylhistamine (0.3 μg/l μL/head, 30% propylene glycol liquid) was administered into the third ventricle. A test compound (compound of Example 3-8) suspended in an aqueous 0.5% methyl cellulose solution was orally administered to the rat before 2 hours before the R-α-methylhistamine administration; and after the R-α-methylhistamine administration, the amount of water drunk by the rat for 1 hour was measured.

[3] = Test for brain/cerebrospinal fluid transition; type: in vivo; conditions: SD male rat, 2 hours after the oral administration (10 mg/kg)
Excerpt: A test compound (compound of Example 3-8) was orally or intravenously administered to an SD male rat (7 to 10-week age, 200 to 400 g), and under anesthesia with ether for a predetermined period of time, the whole blood was collected from it through the abdominal aorta thereof using a heparin-processed syringe. Next, the head skin was cut, and a dental 30 G needle was stuck into the cervical spine to run through the subarachnoid cavity. Via a tube connected to the dental 30 G needle, from 50 to 100 μl of the cerebrospinal fluid was collected in a 1-mL syringe, and then the brain was taken out. The blood sample was centrifuged (4° C., 6000 revolutions, 10 minutes), and the resulting plasma was stirred with ethanol (containing an internal standard substance) in an amount of three times thereof added to it. The brain sample was homogenized with 2 mL of water added thereto; and a part of it was taken out and stirred with ethanol (containing an internal standard substance) in an amount of three times thereof added to it. The cerebrospinal fluid was stirred with ethanol (containing an internal standard substance) in an amount of three times thereof added to it. The above samples were left at −20° C. for 20 minutes, then centrifuged (4° C., 12,000 g, 10 minutes), and the supernatant was analyzed through LC/MS/MS. According to a relative calibration curve method, the compound concentration in the plasma, in the brain and in the cerebrospinal fluid was determined. As a result, the test compound concentration in the brain was 0.99 nmol/g, that in the cerebrospinal fluid was 0.074 μM and that in the plasma was 0.6 μM, after 2 hours after the oral administration (10 mg/kg).

T1 sequence (Q9Y5N1 whole entry): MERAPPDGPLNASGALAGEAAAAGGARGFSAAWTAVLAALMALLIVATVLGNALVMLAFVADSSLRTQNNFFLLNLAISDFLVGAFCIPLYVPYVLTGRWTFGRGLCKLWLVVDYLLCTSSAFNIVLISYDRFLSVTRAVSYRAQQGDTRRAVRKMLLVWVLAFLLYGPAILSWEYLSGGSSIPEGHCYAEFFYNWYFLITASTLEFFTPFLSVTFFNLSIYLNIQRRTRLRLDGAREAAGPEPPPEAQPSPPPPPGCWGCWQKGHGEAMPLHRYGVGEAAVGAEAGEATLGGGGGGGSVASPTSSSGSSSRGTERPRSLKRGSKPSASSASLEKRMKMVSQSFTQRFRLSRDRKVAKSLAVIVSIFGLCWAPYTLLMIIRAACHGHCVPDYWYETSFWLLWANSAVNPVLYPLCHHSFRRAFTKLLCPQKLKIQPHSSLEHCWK
T2 sequence (Q9QYN8 whole entry): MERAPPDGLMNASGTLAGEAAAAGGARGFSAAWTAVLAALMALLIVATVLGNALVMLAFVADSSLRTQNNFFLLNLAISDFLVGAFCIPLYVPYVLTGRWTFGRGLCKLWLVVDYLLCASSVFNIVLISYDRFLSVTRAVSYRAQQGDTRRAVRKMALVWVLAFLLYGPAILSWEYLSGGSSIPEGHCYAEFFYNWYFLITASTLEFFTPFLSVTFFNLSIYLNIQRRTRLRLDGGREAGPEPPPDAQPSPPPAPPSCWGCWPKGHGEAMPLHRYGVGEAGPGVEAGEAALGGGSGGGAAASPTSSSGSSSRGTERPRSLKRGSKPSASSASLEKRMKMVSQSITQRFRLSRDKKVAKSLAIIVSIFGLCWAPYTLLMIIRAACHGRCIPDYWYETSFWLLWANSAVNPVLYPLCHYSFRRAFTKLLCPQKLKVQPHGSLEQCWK

IC50 [1] [nM] | Structure (SMILES) | also measured
1.08 | CC(C)N1CCC(Oc2ccc(N3CCC4(CC3)CN(c3cnccn3)C(=O)CO4)cc2)CC1 [Example 3-138, 9-{4-[(1-isopropylpiperidin-4-yl)oxy]phenyl}-4-pyrazin-2-yl-1-oxa-4,9-diazaspiro[5,5]undecan-3-one] | 
1.2 | C[C@H]1CCCN(CCCOc2ccc(N3CCC4(CC3)CN(C3CCCC3)C(=O)CO4)cc2)C1 [Example 4-17, 4-cyclopentyl-9-(4-{3-[(3S)-3-methylpiperidin-1-yl]propoxy}phenyl)-1-oxa-4,9-diazaspiro[5,5]undecan-3-one] | 
0.41 | CCN1CC2(CCN(c3ccc(OCCCN4CCC[C@H]4C)cc3)CC2)OC1=O [Example 3-96, 3-ethyl-8-(4-{3-[(2R)-2-methylpyrrolidin-1-yl]propoxy}phenyl)-1-oxa-3,8-diazaspiro[4,5]decan-2-one] | 
0.22 | COc1ncc(N2CC3(CCN(c4ccc(OCCCN5CCCCC5)cc4)CC3)OCC2=O)cn1 [Example 3-15, 4-(2-methoxypyrimidin-5-yl)-9-[4-(3-piperidin-1-ylpropoxy)phenyl]-1-oxa-4,9-diazaspiro[5,5]undecan-3-one] | 
0.09 | COc1ccc(N2CC3(CCN(c4ccc(OC5CCN(C6CCC6)CC5)cc4)CC3)OC2=O)cn1 [Example 3-168, 8-{4-[(1-cyclobutylpiperidin-4-yl)oxy]phenyl}-3-(6-methoxypyridin-3-yl)-1-oxa-3,8-diazaspiro[4,5]decan-2-one] | 
4.2 | O=C1COC2(CCN(c3ccc(OCCCN4CCCCC4)cc3)CC2)CN1c1ccccc1 [Example 3-8, 4-phenyl-9-[4-(3-piperidin-1-ylpropoxy)phenyl]-1-oxa-4,9-diazaspiro[5,5]undecan-3-one] | increase in the water drinking induced by the administration of R-α-methylhistamine in the third ventricle [2]: significantly inhibited; test compound concentration in the brain [3]: 0.99 nmol/g; concentration at 2 h ([3]; cerebrospinal fluid, read-out: test compound concentration in the cerebrospinal fluid): 74 nM; concentration at 2 h ([3]; plasma, read-out: test compound concentration in the plasma): 600 nM
1.2 | C[C@H]1CCCN1CCCOc1ccc(N2CCC3(CC2)CN(c2cnn(C)c2)C(=O)CO3)cc1 [Example 3-95, 4-(1-methyl-1H-pyrazol-4-yl)-9-(4-{3-[(2S)-2-methylpyrrolidin-1-yl]propoxy}phenyl)-1-oxa-4,9-diazaspiro[5,5]undecan-3-one] | 
0.19 | C[C@@H]1CCCN1CCCOc1ccc(N2CCC3(CC2)CN(c2ccc(S(C)(=O)=O)cc2)C(=O)CO3)cc1 [Example 3-79, 9-(4-{3-[(2R)-2-methylpyrrolidin-1-yl]propoxy}phenyl)-4-[4-(methylsulfonyl)phenyl]-1-oxa-4,9-diazaspiro[5,5]undecan-3-one] | 
0.18 | COc1ccc(N2CC3(CCN(c4ccc(OC5CCN(C6CCC6)CC5)cc4)CC3)OCC2=O)cc1 [Example 3-107, 9-{4-[(1-cyclobutylpiperidin-4-yl)oxy]phenyl}-4-(4-methoxyphenyl)-1-oxa-4,9-diazaspiro[5,5]undecan-3-one] | 
3 | COc1ccc(C2(O)CCN(c3ccc(OCCCN4CCCCC4)cc3)CC2)cc1 [Example 2-6, 4-(4-methoxyphenyl)-1-[4-(3-piperidin-1-ylpropoxy)phenyl]piperidin-4-ol trifluoroacetate] | 
0.66 | O=C1COC2(CCN(c3ccc(OC4CCN(C5CCC5)CC4)nc3)CC2)CN1c1cccnc1 [Example 3-150, 9-{6-[(1-cyclobutylpiperidin-4-yl)oxy]pyridin-3-yl}-4-pyridin-3-yl-1-oxa-4,9-diazaspiro[5,5]undecan-3-one] | 
0.94 | O=C1OC2(CCN(c3ccc(OCCCN4CCCCC4)cc3)CC2)CN1c1ccncc1 [Example 3-42, 8-[4-(3-piperidin-1-ylpropoxy)phenyl]-3-(pyridin-4-yl)-1-oxa-3,8-diazaspiro[4,5]decan-2-one] | 
